Measured values published in ChEMBL document CHEMBL1151280, “ent-Kaurane Diterpenoids from Isodon albopilosus” (J Nat Prod, 2005).

Each molecule was assayed on HepG2 (assay: Cytotoxicity against human HepG2 cells after 24 hrs by Alamar blue assay). Conditions: not given.
Format: functional, cell-based
For C[C@@H]1[C@@H]2C(=O)C[C@H]3[C@]4(C)CCC[C@](C)(CO)[C@H]4C[C@@H](O)[C@@]3([C@@H]1O)[C@@H]2O, the Activity was “Not toxic”. CC(=O)OC[C@@]1(C)CCC[C@]2(C)[C@@H]1C[C@@H](O)[C@@]13C(=O)[C@H](CO)[C@@H]([C@H]1O)[C@@H](O)C[C@@H]23 was tested, and the Activity was “Not toxic”. With C=C1C(=O)[C@@]23[C@H](O)C[C@H]4[C@@](C)(CCC[C@]4(C)C(=O)O)[C@@H]2CC[C@@H]1[C@H]3O the Activity was “Not toxic”. For C=C1[C@@H](OC(C)=O)[C@@]23[C@H](O)C[C@@H]4[C@@](C)(CO)CCC[C@@]4(C)[C@@H]2CC[C@@H]1[C@H]3O, the Activity was “Not toxic”. C=C1C[C@@]23[C@H](O)C[C@@H]4[C@@](C)(CO)CCC[C@@]4(C)[C@@H]2C[C@H](O)[C@@H]1[C@H]3O was tested, and the Activity was “Not toxic”. For C=C1[C@H]2[C@@H](O)[C@@]3([C@H](O)C[C@@H]4[C@@](C)(CO)CCC[C@@]4(C)[C@@H]3C[C@@H]2O)[C@@H]1OC(C)=O, the Activity was “Not toxic”. For C[C@H]1C(=O)[C@@]23[C@H](O)C[C@@H]4[C@@](C)(CO[C@@H]5O[C@H](CO)[C@@H](O)[C@H](O)[C@H]5O)CCC[C@@]4(C)[C@@H]2C[C@H](O)[C@@H]1[C@H]3O, the Activity was “Not toxic”. In the case of C=C1[C@H]2[C@@H](O)[C@@]3([C@H](O)C[C@H]4[C@@](C)(CCC[C@]4(C)C=O)[C@@H]3C[C@@H]2O)[C@@H]1OC(C)=O, the Activity is reported as “Not toxic”. For C[C@H]1C(=O)[C@@]23[C@H](O)C[C@H]4[C@@](C)(CCC[C@]4(C)C(=O)O)[C@@H]2C[C@H](O)[C@@H]1[C@H]3O, the Activity was “Not toxic”. In the case of C=C1C(=O)[C@@]23[C@H](O)C[C@H]4[C@@](C)(CCC[C@]4(C)C(=O)O)[C@@H]2C[C@H](O)[C@@H]1[C@H]3O, the Activity is reported as “Not toxic”.

Same assay, conditions: HepG2, 24 h
C=C1C(=O)[C@@]23[C@H](O)C[C@H]4[C@@](C)(CCC[C@]4(C)C=O)[C@@H]2C[C@H](O)[C@@H]1[C@H]3O [MACROCALYXIN C] showed an IC50 of 30.8 µM. For C=C1C(=O)[C@@]23[C@H](O)C[C@@H]4[C@@](C)(CO)CCC[C@@]4(C)[C@@H]2CC[C@@H]1[C@H]3O [EXCISANIN C], the IC50 was 13.2 µM. Work on C=C1C(=O)[C@@]23[C@H](O)C[C@H]4[C@@](C)(CCC[C@]4(C)C=O)[C@@H]2CC[C@@H]1[C@H]3O [ALBOPILOSIN H] yielded an IC50 of 13.3 µM. C=C1C(=O)[C@@]23[C@H](O)C[C@@H]4[C@@](C)(COC(C)=O)CCC[C@@]4(C)[C@@H]2C[C@H](O)[C@@H]1[C@H]3O [ALBOPILOSIN A] showed an IC50 of 24.9 µM. With C=C1C(=O)[C@@]23[C@H](O)C[C@@H]4[C@@](C)(CO)CCC[C@@]4(C)[C@@H]2C[C@H](O)[C@@H]1[C@H]3O [RABDOKUNMIN C] the IC50 was 42.1 µM.
